Data on 18 compounds can be found in patent US12503452B2 (Curza Global, LLC, priority 2019, dated 2025).

The structures appear in SMILES notation. Where a name gives a salt, the structure may show the parent alone. Read-outs that look alike come from different tables or passages of the source.

The subject of one test is A. baumannii (Ab). Kind of test: Broth microdilution minimum inhibitory concentration (MIC). The class given is cell-based. As to conditions: for MIC: Acinetobacter baumannii, read-out: Ab + bicarb MIC. Put shortly:
(§1)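 Following CLSI M07-A9 with minor changes, growth medium was cation-adjusted Mueller-Hinton broth, alone or supplemented with bicarbonate (6.25 or 25 mM) or heat-inactivated human serum up to 50%. Each compound was tested over eight two-fold dilutions against 5×10^4 CFU per well.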
On the technique in general: In broth dilution the organism is exposed to a series of concentrations in liquid medium.

For a further test, the system named is S. aureus (Sa). The description is as above. The class given is cell-based. As to conditions: for MIC: Staphylococcus aureus, read-out: Sa + bicarb MIC. Summed up:
as §1

The subject of another test is P. aeruginosa (Pa). The test is described as above. The class given is cell-based. The following applies: for MIC: Pseudomonas aeruginosa, read-out: Pa MIC + bicarb. Put shortly: as §1
The next test deals with E. faecalis (Ef). Described as above. As to conditions: for MIC: Enterococcus faecalis, read-out: Ef + bicarb MIC. The class given is cell-based. Summed up: as §1
A further test relates to E. coli (Ec). The test is described as above. The class given is cell-based. The following applies: for MIC: Escherichia coli, read-out: E. coli + bicarb MIC. Summed up: as §1
For test [1], the system named is E. coli S30 extract (bacterial protein synthesis). Nature of the test: E. coli S30 extract coupled transcription-translation luciferase assay (inhibition of bacterial protein synthesis). The class given is biochemical. The following applies: class by IC50 or % inhibition @ 1 μM, read-out: S30 IC50 (μM/% inhib.). Summed up: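 Cell-free coupled transcription-translation in E. coli S30 circular-DNA extract, with pBESTluc plasmid as template and complete amino acid mix. Eight 2-fold compound dilutions were incubated with the extract 1 h at 37 °C, chilled, then luciferase luminescence was read. % inhibition was taken relative to no-inhibitor wells; no-DNA wells gave background.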

The target of test [2] is Rabbit Reticulocyte Lysate (eukaryotic protein synthesis). Kind of test: Rabbit reticulocyte lysate luciferase assay (inhibition of eukaryotic protein synthesis). The class given is biochemical. As to conditions: class by IC50 or % inhibition @ 1 μM, read-out: Rabbit reticulocyte IC50 (μM/% inhib.). Put shortly: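 Nuclease-treated rabbit reticulocyte lysate translating luciferase control RNA, with complete amino acids, was incubated at 30° C. for 90 minutes with 2-fold serial compound dilutions. Luminescence was measured after adding luciferase reagent. % inhibition was relative to water controls, with no-RNA wells as background.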

[3] abbreviates: A. baumannii, growth medium with sodium bicarbonate.
[4] abbreviates: S. aureus, growth medium with sodium bicarbonate.
Setting [5] is: P. aeruginosa, growth medium with sodium bicarbonate.
Where [6] appears, read: E. coli, growth medium with sodium bicarbonate.

Consider `CC(N)C1CCN(Cc2ccc(-n3ccc(NC(=O)N4CCN(C(=O)C(C)(C)N)CC4)nc3=O)cc2)CC1` (stereo not drawn) [Compound 299, hydrochloride salt], for which, in the test on A. baumannii (Ab) (setting [3]), the “Ab + bicarb MIC” value is “+ (An MIC value (μg/mL) that is 32 μg/mL or greater)”. Further, the “Sa + bicarb MIC” value with S. aureus (Sa) (setting [4]) is listed as “+++ (An MIC value (μg/mL) that is less than 8 μg/mL)”. Also, in the test on P. aeruginosa (Pa) (setting [5]), the “Pa MIC + bicarb” value is recorded as “+ (An MIC value (μg/mL) that is 32 μg/mL or greater)”. The “Ef + bicarb MIC” value in the test on E. faecalis (Ef) (E. faecalis, growth medium with sodium bicarbonate, hydrochloride salt) was “++ (An MIC value (μg/mL) that is 8 μg/mL or greater and less than 32 μg/mL)”. In addition, the “E. coli + bicarb MIC” value in the test with E. coli (Ec) (setting [6]) is reported as “+++ (An MIC value (μg/mL) that is less than 8 μg/mL)”. Also, the IC50 in test [1] (hydrochloride salt) was 0.5 to 1 µM; in test [2] it was over 1 µM.

A word on the MIC: it is the least concentration at which growth counts as inhibited. In the case of `CNC1CCC(N(Cc2ccc(-n3ccc(NC(=O)N4CCN(C(=O)C(C)(C)N)CC4)nc3=O)cc2)CC2CC2)CC1` (stereo not drawn) [Compound 301, hydrochloride salt], the MIC in the test with A. baumannii (Ab) is 8 to 32 mg/L; in the test on S. aureus (Sa), under 8 mg/L; in the test on P. aeruginosa (Pa), over 32 mg/L; in the test with E. faecalis (Ef), under 8 mg/L; in the test on E. coli (Ec), under 8 mg/L. The values for the IC50 in test [1] and in test [2] were 0.5 to 1 µM and over 1 µM, respectively.

`NC1CCCN(CCc2ccc(-n3ccc(NC(=O)N4CCN(C(=O)C5CCCN5)CC4)nc3=O)cc2)CC1` (stereo not drawn) [Compound 310, hydrochloride salt]: the MIC in the test on A. baumannii (Ab) is over 32 mg/L; in the test with S. aureus (Sa), 8 to 32 mg/L; with P. aeruginosa (Pa), over 32 mg/L; in the test on E. faecalis (Ef), over 32 mg/L; in the test with E. coli (Ec) it was under 8 mg/L. For the same compound, the IC50 in test [1] is 0.5 to 1 µM; in test [2], over 1 µM.

Regarding `CCN(Cc1ccc(-n2ccc(NC(=O)N3CCN(C(=O)CNC)CC3)nc2=O)cc1)C1CCC(N)CC1` (stereo not drawn) [Compound 313, hydrochloride salt], the minimum inhibitory concentration (MIC) was over 32 mg/L in the test with A. baumannii (Ab); under 8 mg/L with S. aureus (Sa); over 32 mg/L in the test with P. aeruginosa (Pa); over 32 mg/L in the test with E. faecalis (Ef); under 8 mg/L in the test with E. coli (Ec). Also, the results for the IC50 in test [1] and in test [2] were 0.5 to 1 µM and over 1 µM, respectively.

With `CCN(Cc1ccc(-n2ccc(NC(=O)N3CCN(C(=O)C4(N)CCC4)CC3)nc2=O)cc1)C1CCC(N)CC1` (stereo not drawn) [Compound 315, hydrochloride salt], the MIC in the test on A. baumannii (Ab) was over 32 mg/L; with S. aureus (Sa) it was 8 to 32 mg/L; with P. aeruginosa (Pa), over 32 mg/L; with E. faecalis (Ef), over 32 mg/L; with E. coli (Ec), 8 to 32 mg/L. The IC50 in test [1] and in test [2] was over 1 µM each time.

With `COc1cc(-n2ccc(NC(=O)N3CCN(C(=O)C(C)(C)N)CC3)nc2=O)ccc1CN(CC1CC1)C1CCC(N)CC1` (stereo not drawn) [Compound 317, hydrochloride salt], the MIC was over 32 mg/L in the test with A. baumannii (Ab); under 8 mg/L in the test on S. aureus (Sa); over 32 mg/L in the test on P. aeruginosa (Pa); 8 to 32 mg/L in the test with E. faecalis (Ef); under 8 mg/L with E. coli (Ec). Also, the IC50 was under 0.5 µM in test [1] and over 1 µM in test [2].

Regarding `CC(C)(N)C(=O)N1CCN(C(=O)Nc2ccn(-c3ccc(CNC4C[C@@H](N)C[C@@H](N)C4)cc3)c(=O)n2)CC1` (stereo partly drawn) [Compound 321, hydrochloride salt], the MIC was over 32 mg/L in the test on A. baumannii (Ab); over 32 mg/L in the test on S. aureus (Sa); over 32 mg/L with P. aeruginosa (Pa); over 32 mg/L with E. faecalis (Ef); 8 to 32 mg/L with E. coli (Ec). The figures for the IC50 in test [1] and in test [2] were under 0.5 µM and over 1 µM, respectively.

Turning to `CC(C)(N)C(=O)N1CCN(C(=O)Nc2ccn(-c3ccc(CN[C@H]4CC[C@H](N)CC4)c(F)c3)c(=O)n2)CC1` [Compound 330, 4-(2-Amino-2-methylpropanoyl)-N-(1-(4-(((trans-4-aminocyclohexyl)amino)methyl)-3-fluorophenyl)-2-oxo-1,2-dihydropyrimidin-4-yl)piperazine-1-carboxamide hydrochloride salt], the minimum inhibitory concentration (MIC) is over 32 mg/L in the test on A. baumannii (Ab); 8 to 32 mg/L with S. aureus (Sa); over 32 mg/L in the test on P. aeruginosa (Pa); over 32 mg/L in the test on E. faecalis (Ef); under 8 mg/L in the test on E. coli (Ec). Besides, the IC50 in test [1] was under 0.5 µM; in test [2] it was over 1 µM.

`CC(C)(N)C(=O)N1CCN(C(=O)Nc2ccn(-c3ccc(CN(CC4CC4)C4CCC(N)CC4)c(OC(F)(F)F)c3)c(=O)n2)CC1` (stereo not drawn) [Compound 331, hydrochloride salt]: the MIC in the test with A. baumannii (Ab) is over 32 mg/L; in the test with S. aureus (Sa), 8 to 32 mg/L; in the test with P. aeruginosa (Pa), over 32 mg/L; with E. faecalis (Ef), 8 to 32 mg/L; with E. coli (Ec) it was under 8 mg/L. The values for the IC50 in test [1] and in test [2] were under 0.5 µM and over 1 µM, respectively.

`CC(C)(N)C(=O)N1CCN(C(=O)Nc2ccn(-c3ccc(CN[C@H]4CC[C@H](N)CC4)c(OC(F)(F)F)c3)c(=O)n2)CC1` [Compound 332, hydrochloride salt]: the MIC in the test on A. baumannii (Ab) is over 32 mg/L; in the test with S. aureus (Sa), 8 to 32 mg/L; in the test on P. aeruginosa (Pa), over 32 mg/L; in the test on E. faecalis (Ef), 8 to 32 mg/L; with E. coli (Ec) it was under 8 mg/L. Further, the figures for the IC50 in test [1] and in test [2] were under 0.5 µM and over 1 µM, respectively.

Consider `CC(C)(N)C(=O)N1CCN(C(=O)Nc2ccn(-c3ccc(CN4CCCC(N)CC4)c(F)c3)c(=O)n2)CC1` (stereo not drawn) [Compound 334, hydrochloride salt], for which the MIC is over 32 mg/L with A. baumannii (Ab); 8 to 32 mg/L in the test with S. aureus (Sa); over 32 mg/L in the test on P. aeruginosa (Pa); over 32 mg/L in the test with E. faecalis (Ef); under 8 mg/L in the test on E. coli (Ec). Moreover, the IC50 was under 0.5 µM in test [1] and over 1 µM in test [2].

On to `CC1C[C@@H](NCc2ccc(-n3ccc(NC(=O)N4CCN(C(=O)C(C)(C)N)CC4)nc3=O)cc2)CC[C@@H]1N` (stereo partly drawn) [Compound 335, hydrochloride salt], for which the MIC in the test on A. baumannii (Ab) is over 32 mg/L; with S. aureus (Sa), under 8 mg/L; with P. aeruginosa (Pa), over 32 mg/L; with E. faecalis (Ef) it was over 32 mg/L; in the test with E. coli (Ec) it was under 8 mg/L. Further, the IC50 in test [1] is under 0.5 µM; in test [2] it was over 1 µM.

Turning to `CC1C[C@@H](N(C)Cc2ccc(-n3ccc(NC(=O)N4CCN(C(=O)C(C)(C)N)CC4)nc3=O)cc2)CC[C@@H]1N` (stereo partly drawn) [Compound 337], the minimal inhibitory concentration (MIC) in the test with A. baumannii (Ab) (setting [3]) is over 32 mg/L; in the test on S. aureus (Sa) (setting [4]), under 8 mg/L; with P. aeruginosa (Pa) (setting [5]), over 32 mg/L; in the test on E. faecalis (Ef) (E. faecalis, growth medium with sodium bicarbonate), 8 to 32 mg/L; with E. coli (Ec) (setting [6]), under 8 mg/L. Further, the IC50 was under 0.5 µM in test [1] and over 1 µM in test [2].

On to `CCN(Cc1ccc(-n2ccc(NC(=O)N3CCN(C(=O)C(C)(C)N)CC3)nc2=O)cc1)[C@H]1CC[C@H](N)C(C)C1` (stereo partly drawn) [Compound 338, hydrochloride salt], for which the MIC in the test on A. baumannii (Ab) is over 32 mg/L; with S. aureus (Sa), under 8 mg/L; in the test with P. aeruginosa (Pa), over 32 mg/L; in the test on E. faecalis (Ef), 8 to 32 mg/L; with E. coli (Ec) it was under 8 mg/L. Besides, the IC50 was under 0.5 µM in test [1] and over 1 µM in test [2].

In the case of `CO[C@H]1C[C@@H](NCc2ccc(-n3ccc(NC(=O)N4CCN(C(=O)C(C)(C)N)CC4)nc3=O)cc2)CC[C@@H]1N` [Compound 339, hydrochloride salt], the minimal inhibitory concentration (MIC) in the test on A. baumannii (Ab) was over 32 mg/L; with S. aureus (Sa) it was 8 to 32 mg/L; with P. aeruginosa (Pa) it was over 32 mg/L; with E. faecalis (Ef), over 32 mg/L; with E. coli (Ec), under 8 mg/L. In addition, the IC50 is under 0.5 µM in test [1] and over 1 µM in test [2].

Turning to `CO[C@H]1C[C@@H](N(C)Cc2ccc(-n3ccc(NC(=O)N4CCN(C(=O)C(C)(C)N)CC4)nc3=O)cc2)CC[C@@H]1N` [Compound 340, hydrochloride salt], the minimum inhibitory concentration (MIC) is over 32 mg/L in the test on A. baumannii (Ab); 8 to 32 mg/L with S. aureus (Sa); over 32 mg/L in the test on P. aeruginosa (Pa); over 32 mg/L in the test on E. faecalis (Ef); under 8 mg/L in the test on E. coli (Ec). Moreover, the IC50 was 0.5 to 1 µM in test [1] and over 1 µM in test [2].

Take `CCN(Cc1ccc(-n2ccc(NC(=O)N3CCN(C(=O)C(C)(C)N)CC3)nc2=O)cc1)[C@H]1CC[C@H](N)[C@@H](OC)C1` [Compound 341, hydrochloride salt]: the MIC was over 32 mg/L in the test on A. baumannii (Ab); 8 to 32 mg/L in the test with S. aureus (Sa); over 32 mg/L in the test on P. aeruginosa (Pa); over 32 mg/L with E. faecalis (Ef); 8 to 32 mg/L in the test with E. coli (Ec). Besides, the results for the IC50 in test [1] and in test [2] were 0.5 to 1 µM and over 1 µM, respectively.

As for `CC(C)(N)C(=O)N1CCN(C(=O)Nc2ccn(-c3ccc(CNC4CC(N)CC(O)C4)cc3)c(=O)n2)CC1` (stereo not drawn) [Compound 342, hydrochloride salt], the MIC was over 32 mg/L with A. baumannii (Ab); over 32 mg/L with S. aureus (Sa); over 32 mg/L in the test with P. aeruginosa (Pa); over 32 mg/L in the test on E. faecalis (Ef); 8 to 32 mg/L in the test with E. coli (Ec). Further, the IC50 in test [1] is under 0.5 µM; in test [2] it was over 1 µM.
